EC50 data for 27 compounds are collected here from patent US20070213301A1 (ACHILLION PHARMACEUTICALS, INC., priority 2006, published 2007).

For the assay, the system named is HCV replicon. In words: HCV replicon replication assay (NPTII ELISA). To be noted: Hepatitis C virus, Huh-7, 72 h, inhibition of HCV replicon replication in Huh-7 HCV replicon-containing cells, three days incubation, NPT level by ELISA. It is filed as cell-based, Hepatitis C virus (Huh-7 cells). The essentials:
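Huh-7 cells carrying a Bartenschlager NPTII (neo) HCV replicon, treated 3 days at 37 °C with compound, generally 6 concentrations from 10 to 0.03 micromolar, in equal DMSO across wells. NPTII level, proportional to replication, read by capture ELISA on methanol:acetone-fixed cells; interferon alpha positive control; toxicity scored visually or by MTS.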

Structures are written as SMILES. Like-named read-outs stand apart in the source and are kept apart here. A value given as a limit tells only on which side of the number the result lay.

For orientation: EC50 means the midpoint of the concentration-response curve. As to `CCCCCOc1ccc(N(C(=O)Nc2ccccc2)c2nc(-c3cccnc3)cs2)cc1C(F)(F)F` [Compound 81, 1-(4-(pentyloxy)-3-(trifluoromethyl)phenyl)-3-phenyl-1-(4-(pyridin-3-yl)thiazol-2-yl)urea], the EC50 (read-out: EC50) is less than 1 µM.
On the same count and under the same terms, the figure for `CCCCCCCCOc1ccc(N(CC(N)=O)c2nc(-c3ccc(OCC(N)=O)cc3)cs2)cc1` [Compound 82, 2-((4-(4-(2-amino-2-oxoethoxy)phenyl)thiazol-2-yl)(4-(octyloxy)phenyl)amino)acetamide] is more than 10 µM; for `NC(=O)N(c1ccc(F)c(C(F)(F)F)c1)c1nc(-c2cccnc2)cs1` [Compound 83, 1-(4-fluoro-3-(trifluoromethyl)phenyl)-1-(4-(pyridin-3-yl)thiazol-2-yl)urea] it is less than 1 µM.
On the same count and under the same terms, as for `COc1ccc(N(C(N)=O)c2nc(-c3cccnc3)cs2)cc1C(F)(F)F` [Compound 84, 1-(4-methoxy-3-(trifluoromethyl)phenyl)-1-(4-(pyridin-3-yl)thiazol-2-yl)urea], the figure is less than 1 µM.
Turning to `COc1ccc(N(C(N)=O)c2nc(-c3ccc(F)cc3)cs2)cc1C(F)(F)F` [Compound 85, 1-(4-(4-fluorophenyl)thiazol-2-yl)-1-(4-methoxy-3-(trifluoromethyl)phenyl)urea], under “read-out: EC50”, the EC50 is less than 1 µM.
Consider `CCCCCOc1ccc(N(C(N)=O)c2nc(-c3ccc(F)cc3F)cs2)cc1C(F)(F)F` [Compound 86, 1-(4-(2,4-difluorophenyl)thiazol-2-yl)-1-(4-(pentyloxy)-3-(trifluoromethyl)phenyl)urea], for which, where the note is “read-out: EC50”, the EC50 was less than 1 µM.
In the case of `CCCCCOc1ccc(N(C(N)=O)c2nc(-c3cccnc3)cs2)cc1F` [Compound 87, 1-(3-fluoro-4-(pentyloxy)phenyl)-1-(4-(pyridin-3-yl)thiazol-2-yl)urea], the concentration for a half-maximal effect (EC50) (read-out: EC50) was less than 1 µM.
For the compound `CCCCCCCCOc1ccc(N(C(=O)NC2CCCCC2)c2nc(-c3cccnc3)cs2)cc1` [Compound 88, 3-cyclohexyl-1-(4-(octyloxy)phenyl)-1-(4-(pyridin-3-yl)thiazol-2-yl)urea], the EC50 (read-out: EC50) is 1 to 10 µM.
Still for that read-out and setting: the figure for `CCCCCCCCOc1ccc(N(C(=O)c2cc(C)on2)c2nc(-c3ccc(Cl)s3)cs2)cc1` [Compound 89, N-(4-(5-chlorothiophen-2-yl)thiazol-2-yl)-5-methyl-N-(4-(octyloxy)phenyl)isoxazole-3-carboxamide] is less than 1 µM.
Turning to `CCCCCCCCOc1ccc(N(C(=O)c2cc(C)on2)c2nc(-c3nc4ccccc4s3)cs2)cc1` [Compound 90], the EC50 was 1 to 10 µM.
As to `CCCCCCCOc1ccc(N(C(=O)c2cc(C)on2)c2nc(-c3ccc(Cl)s3)cs2)cc1` [Compound 91, N-(4-(5-chlorothiophen-2-yl)thiazol-2-yl)-N-(4-(heptyloxy)phenyl)-5-methylisoxazole-3-carboxamide], under “read-out: EC50”, the EC50 was less than 1 µM.
The same measure, in the same setting: the figure for `CCCCCCCOc1ccc(N(C(=O)c2cc(C)on2)c2nc(-c3nc4ccccc4s3)cs2)cc1` [Compound 92, N-(4-(benzo[d]thiazol-2-yl)thiazol-2-yl)-N-(4-(heptyloxy)phenyl)-5-methylisoxazole-3-carboxamide] is 1 to 10 µM; for `CCCCCOc1ccc(N(C(=O)c2cc(C)on2)c2nc(-c3nc4ccccc4s3)cs2)cc1C(F)(F)F` [Compound 94, N-(4-(benzo[d]thiazol-2-yl)thiazol-2-yl)-5-methyl-N-(4-(pentyloxy)-3-(trifluoromethyl)phenyl)isoxazole-3-carboxamide] it is less than 1 µM; for `CCCCCCCOc1ccc(N(C(=O)C2CCCCC2)c2nc(-c3ccccn3)cs2)cc1` [Compound 95, N-(4-(heptyloxy)phenyl)-N-(4-(pyridin-2-yl)thiazol-2-yl)cyclohexanecarboxamide] it is 1 to 10 µM.
The same measure, in the same setting: as for `CCCCCOc1ccc(N(C(=O)C2CCCCC2)c2nc(-c3ccccn3)cs2)cc1C(F)(F)F` [Compound 96, N-(4-(pentyloxy)-3-(trifluoromethyl)phenyl)-N-(4-(pyridin-2-yl)thiazol-2-yl)cyclohexanecarboxamide], the figure is less than 1 µM; as for `CCCCCCCCOc1ccc(N(C(=O)C(=O)OC)c2nc(-c3ccc(Cl)s3)cs2)cc1` [Compound 97, methyl 2-((4-(5-chlorothiophen-2-yl)thiazol-2-yl)(4-(octyloxy)phenyl)amino)-2-oxoacetate], less than 1 µM.
Still for that read-out and setting: as for `CCCCCCCOc1ccc(N(C(=O)C(=O)OC)c2nc(-c3ccc(Cl)s3)cs2)cc1` [Compound 98, methyl 2-((4-(5-chlorothiophen-2-yl)thiazol-2-yl)(4-(heptyloxy)phenyl)amino)-2-oxoacetate], the figure is less than 1 µM; as for `CCCCCOc1ccc(N(C(=O)C(=O)OC)c2nc(-c3ccc(Cl)s3)cs2)cc1C(F)(F)F` [Compound 99, methyl 2-((4-(5-chlorothiophen-2-yl)thiazol-2-yl)(4-(pentyloxy)-3-(trifluoromethyl)phenyl)amino)-2-oxoacetate], less than 1 µM; as for `CCCCCOc1ccc(N(C(=O)C(=O)OC)c2nc(-c3ccc4[nH]c(=O)oc4c3)cs2)cc1C(F)(F)F` [Compound 100, methyl 2-oxo-2-((4-(2-oxo-2,3-dihydrobenzo[d]oxazol-6-yl)thiazol-2-yl)(4-(pentyloxy)-3-(trifluoromethyl)phenyl)amino)acetate], less than 1 µM.
On to `CCCCCCCCOc1ccc(N(C(=O)c2cccnc2)c2nc(-c3nc4ccccc4s3)cs2)cc1` [Compound 101, N-(4-(benzo[d]thiazol-2-yl)thiazol-2-yl)-N-(4-(octyloxy)phenyl)nicotinamide], for which the concentration for a half-maximal effect (EC50) (read-out: EC50) fell in the range of 1 to 10 µM.
Turning to `CCCCCOc1ccc(N(C(=O)c2cccnc2)c2nc(-c3nc4ccccc4s3)cs2)cc1C(F)(F)F` [Compound 102, N-(4-(benzo[d]thiazol-2-yl)thiazol-2-yl)-N-(4-(pentyloxy)-3-(trifluoromethyl)phenyl)nicotinamide], for the setting “read-out: EC50”, the EC50 was less than 1 µM.
Still for that read-out and setting: as for `CCCCOc1ccc(N(C(N)=O)c2nc(-c3ccccn3)cs2)cc1C(F)(F)F` [Compound 103, 1-(4-butoxy-3-(trifluoromethyl)phenyl)-1-(4-(pyridin-2-yl)thiazol-2-yl)urea], the figure is less than 1 µM.
For `CCCCCN(C)c1ccc(N(C(N)=O)c2nc(-c3ccc4c(c3)NC(=O)CO4)cs2)cc1C(F)(F)F` [Compound 105, 1-(4-(methyl(pentyl)amino)-3-(trifluoromethyl)phenyl)-1-(4-(3-oxo-3,4-dihydro-2H-benzo[b][1,4]oxazin-6-yl)thiazol-2-yl)urea], the EC50 (read-out: EC50) was 1 to 10 µM.
The same measure, in the same setting: as for `CCCCCN(C)c1ccc(N(C(N)=O)c2nc(-c3ccccn3)cs2)cc1C(F)(F)F` [Compound 106, 1-(4-(methyl(pentyl)amino)-3-(trifluoromethyl)phenyl)-1-(4-(pyridin-2-yl)thiazol-2-yl)urea], the figure is less than 1 µM.
Compound `CCCCCN(C)c1ccc(N(C(N)=O)c2nc(-c3ccc(F)c(F)c3)cs2)cc1C(F)(F)F` [Compound 107] gave a concentration for a half-maximal effect (EC50) of less than 1 µM.
As to `CCCCCOc1ccc(N(C(N)=O)c2nc(-c3ccc(O)c(C(N)=O)c3)cs2)cc1F` [Compound 109, 5-(2-(1-(3-fluoro-4-(pentyloxy)phenyl)ureido)thiazol-4-yl)-2-hydroxybenzamide], the EC50 (read-out: EC50) lay within 1 to 10 µM.
In the case of `CCCCCOc1ccc(N(C(N)=O)c2nc(-c3ccc4c(c3)NC(=O)CO4)cs2)cc1F` [Compound 110, 1-(3-fluoro-4-(pentyloxy)phenyl)-1-(4-(3-oxo-3,4-dihydro-2H-benzo[b][1,4]oxazin-6-yl)thiazol-2-yl)urea], the EC50 (read-out: EC50) was more than 10 µM.
